Results: article PMC9204419, “A Toolbox for the Generation of Chemical Probes for Baculovirus IAP Repeat Containing Proteins” (Frontiers in Cell and Developmental Biology, 2022)
“Also recorded” adds a separate entry of the source. Like-named read-outs stand apart in the source and are kept apart here.

Experiments:
BIRC4 = BIRC4 (Homo sapiens, UniProt P98170); experiment: NanoBRET cellular target engagement, full-length BIRC4
Description: (§1) In brief: Constructs contained the cDNA of full-length or single domains cloned in frame with an N-terminal NanoLuc-fusion as specified in Supplementary Table S2. Plasmids were transfected into HEK293T cells using FuGENE HD (Promega, E2312) and proteins were allowed to express for 20 h. […] The corresponding transfected cells were added and reseeded at a density of 2.5^5 cells/mL after trypsinization and resuspending in Opti-MEM without phenol red (Life Technologies). […] Competitive displacement data were then graphed using GraphPad Prism 9.3 software using a normalized 3-parameter curve fit with the following equation: Y = 100/(1 + 10^(X-LogIC50)).

BIRC7 = biological target: T1, BIRC7 (Homo sapiens, UniProt Q96CA5); experiment: NanoBRET cellular target engagement, full-length BIRC7
T1 sequence (Q96CA5 1-298): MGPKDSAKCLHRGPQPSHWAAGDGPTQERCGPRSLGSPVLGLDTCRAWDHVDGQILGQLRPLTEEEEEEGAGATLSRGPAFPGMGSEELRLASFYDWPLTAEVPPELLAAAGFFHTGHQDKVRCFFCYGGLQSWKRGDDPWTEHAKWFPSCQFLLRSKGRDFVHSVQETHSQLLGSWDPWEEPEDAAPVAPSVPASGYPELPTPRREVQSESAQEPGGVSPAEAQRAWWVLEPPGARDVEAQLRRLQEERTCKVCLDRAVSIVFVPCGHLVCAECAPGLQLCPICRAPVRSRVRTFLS
Description: as §1

BIRC8 = biological target: T2, BIRC8 (Homo sapiens, UniProt Q96P09); experiment: NanoBRET cellular target engagement, full-length BIRC8
T2 sequence (Q96P09 1-236): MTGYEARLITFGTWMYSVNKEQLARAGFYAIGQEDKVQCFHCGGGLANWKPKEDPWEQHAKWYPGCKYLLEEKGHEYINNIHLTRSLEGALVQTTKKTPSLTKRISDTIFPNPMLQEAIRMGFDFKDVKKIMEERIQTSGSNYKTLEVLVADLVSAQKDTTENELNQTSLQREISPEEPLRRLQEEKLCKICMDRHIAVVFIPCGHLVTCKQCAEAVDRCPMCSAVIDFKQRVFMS
Description: as §1

BIRC7 BIR = biological target: T3, BIRC7 BIR (Homo sapiens, UniProt Q96CA5); experiment: NanoBRET cellular target engagement, single domain BIRC7 BIR
T3 sequence (Q96CA5 70-176): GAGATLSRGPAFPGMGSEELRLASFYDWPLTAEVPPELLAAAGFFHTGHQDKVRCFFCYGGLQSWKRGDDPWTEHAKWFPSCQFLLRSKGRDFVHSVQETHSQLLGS
Description: as §1

BIRC8 BIR = biological target: T4, BIRC8 BIR (Homo sapiens, UniProt Q96P09); experiment: NanoBRET cellular target engagement, single domain BIRC8 BIR
T4 sequence (Q96P09 1-90): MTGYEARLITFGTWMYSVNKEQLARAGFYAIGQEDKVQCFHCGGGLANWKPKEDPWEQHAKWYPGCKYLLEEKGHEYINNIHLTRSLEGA
Description: as §1

BIRC1 BIR[2] = biological target: T5, BIRC1 BIR[2] (Homo sapiens, UniProt Q13075); experiment: NanoBRET cellular target engagement, single domain BIRC1 BIR[2]
T5 sequence (Q13075 139-251): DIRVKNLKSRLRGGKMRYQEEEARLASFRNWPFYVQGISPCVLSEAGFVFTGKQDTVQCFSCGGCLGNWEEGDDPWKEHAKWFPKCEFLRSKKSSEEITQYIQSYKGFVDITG
Description: as §1

BIRC2-BIR3 domain [1] = biological target: T6, BIRC2-BIR3 domain (Homo sapiens, UniProt Q13490); experiment: Differential scanning fluorimetry (DSF); conditions: for Mean, ΔTm [°C] (Supplementary Table S1): mean of n=3, difference to DMSO control; for ΔTm [°C] (Supplementary Table S1): technical replicate
T6 sequence (Q13490 260-352): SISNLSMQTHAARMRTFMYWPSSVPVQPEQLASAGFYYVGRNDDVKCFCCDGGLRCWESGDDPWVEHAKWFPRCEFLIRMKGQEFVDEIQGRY
Description: Purified proteins were buffered in DSF buffer (25 mM HEPES pH 7.5, 500 mM NaCl) and were assayed in a 384-well plate (Thermo, #BC3384) with a final protein concentration of 20 μM in 10 μL final assay volume. Inhibitors were added in excess to a final concentration of 40 μM, using an ECHO 550 acoustic dispenser (Labcyte). As a fluorescent probe, SYPRO-Orange (Molecular Probes) was used at 5x final concentration. […] Data was analyzed using Boltzmann-equation in the Protein Thermal Shift software (Applied Biosystems). Samples were measured in technical triplicates.
The assay was run in the presence of DMSO to exclude DMSO influences towards melting temperature differences when testing small molecules (Figures 2C,D).

BIRC2 = BIRC2 (Homo sapiens, UniProt Q13490); experiment: NanoBRET cellular target engagement, full-length BIRC2; conditions: read-out: EC50 ± SEM NanoBRET BIRC2; full-length, HEK293T, n = 4
Chain of BIRC2 (Q13490 whole entry, the tested form may be a part): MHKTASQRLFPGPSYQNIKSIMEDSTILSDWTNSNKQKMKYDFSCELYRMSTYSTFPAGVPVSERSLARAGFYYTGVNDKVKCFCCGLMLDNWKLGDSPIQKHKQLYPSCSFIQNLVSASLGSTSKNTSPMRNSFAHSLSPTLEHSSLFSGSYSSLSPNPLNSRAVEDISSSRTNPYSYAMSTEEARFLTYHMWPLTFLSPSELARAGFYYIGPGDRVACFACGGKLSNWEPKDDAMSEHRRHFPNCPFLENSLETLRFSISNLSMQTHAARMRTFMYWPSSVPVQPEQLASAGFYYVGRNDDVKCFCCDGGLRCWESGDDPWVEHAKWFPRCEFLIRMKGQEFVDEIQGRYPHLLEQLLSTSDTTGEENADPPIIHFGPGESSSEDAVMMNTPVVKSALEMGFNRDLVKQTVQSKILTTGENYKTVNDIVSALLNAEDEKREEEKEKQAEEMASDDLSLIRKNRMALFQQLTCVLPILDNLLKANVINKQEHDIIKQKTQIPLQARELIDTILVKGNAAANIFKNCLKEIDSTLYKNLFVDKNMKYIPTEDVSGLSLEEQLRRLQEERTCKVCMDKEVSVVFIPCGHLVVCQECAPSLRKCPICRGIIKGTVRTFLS

BIRC2 BIR2 = BIRC2 BIR2 (Homo sapiens, UniProt Q13490); experiment: NanoBRET cellular target engagement, single domain BIRC2 BIR2; conditions: read-out: EC50 ± SEM NanoBRET BIRC2 BIR2; single domain, HEK293T, n = 4
Chain of BIRC2 BIR2 (Q13490 165-267): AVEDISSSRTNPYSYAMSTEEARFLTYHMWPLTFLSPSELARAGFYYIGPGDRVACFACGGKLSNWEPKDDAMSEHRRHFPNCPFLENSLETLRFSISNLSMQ
Description: as §1

BIRC2 BIR3 = BIRC2 BIR3 (Homo sapiens, UniProt Q13490); experiment: NanoBRET cellular target engagement, single domain BIRC2 BIR3; conditions: read-out: EC50 ± SEM NanoBRET BIRC2 BIR3; single domain, HEK293T, n = 4
Chain of BIRC2 BIR3 (Q13490 251-372): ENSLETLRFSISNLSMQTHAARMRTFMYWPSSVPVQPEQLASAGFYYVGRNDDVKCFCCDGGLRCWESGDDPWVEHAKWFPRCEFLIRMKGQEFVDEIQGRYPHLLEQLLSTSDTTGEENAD
Description: as §1

BIRC2-BIR3 domain [2] = biological target: T6, BIRC2-BIR3 domain; experiment: Fluorescence polarization (FP) competition assay with fluorescent SMAC probe; format: binding; set-up: BIRC2-BIR3 domain (260–352) was expressed; His6 (N, cleaved yes); GST (N, cleaved yes); made in house; host or cells: E. coli; conditions: BIRC2 BIR3 domain, Cheng-Prusoff from IC50, mean ± SD, n = 3
Description: Resulting data was plotted using GraphPad Prism 9.3 software and analyzed using a nonlinear fit to calculate the probe IC50. […] Compounds were titrated from 20 μM to 20 nM using an ECHO 550 acoustic dispenser (Labcyte) incubated for 1 h at room temperature and subsequent read out.
The assay is based on the displacement of a fluorescent SMAC mimetic from the binding site.

BIRC2-BIR3 domain [3] = biological target: T6, BIRC2-BIR3 domain; experiment: Isothermal titration calorimetry (ITC); format: binding; set-up: BIRC2-BIR3 domain (260–352) was expressed; His6 (N, cleaved yes); GST (N, cleaved yes); made in house; host or cells: E. coli; conditions: 25°C, duplicates, mean ± SD
Description: For this protocol, the chamber was pre-equilibrated with the test compound, and the BIRC2-BIR3 domain was titrated in while continuously measuring the rate of exothermic heat evolution. The heat of binding was integrated, corrected, and fitted to an independent single-binding site model based on the manufacturer’s instructions, from which thermodynamic parameters (ΔH and TΔS), equilibrium association and dissociation constants (K A and K D, respectively), and stoichiometry (n) were calculated.

BIRC2-BIR3 domain [4] = biological target: T6, BIRC2-BIR3 domain; set-up: BIRC2-BIR3 domain (260–352) was expressed; His6 (N, cleaved yes); GST (N, cleaved yes); made in house; host or cells: E. coli; conditions: ref Lu et al. (2008); read-out: Literature FP Assay K I Values; cited from earlier work
BIRC3 = BIRC3 (Homo sapiens, UniProt Q13489); experiment: NanoBRET cellular target engagement, full-length BIRC3; conditions: read-out: EC50 ± SEM NanoBRET BIRC3; full-length, HEK293T, n = 4
Chain of BIRC3 (Q13489 whole entry, the tested form may be a part): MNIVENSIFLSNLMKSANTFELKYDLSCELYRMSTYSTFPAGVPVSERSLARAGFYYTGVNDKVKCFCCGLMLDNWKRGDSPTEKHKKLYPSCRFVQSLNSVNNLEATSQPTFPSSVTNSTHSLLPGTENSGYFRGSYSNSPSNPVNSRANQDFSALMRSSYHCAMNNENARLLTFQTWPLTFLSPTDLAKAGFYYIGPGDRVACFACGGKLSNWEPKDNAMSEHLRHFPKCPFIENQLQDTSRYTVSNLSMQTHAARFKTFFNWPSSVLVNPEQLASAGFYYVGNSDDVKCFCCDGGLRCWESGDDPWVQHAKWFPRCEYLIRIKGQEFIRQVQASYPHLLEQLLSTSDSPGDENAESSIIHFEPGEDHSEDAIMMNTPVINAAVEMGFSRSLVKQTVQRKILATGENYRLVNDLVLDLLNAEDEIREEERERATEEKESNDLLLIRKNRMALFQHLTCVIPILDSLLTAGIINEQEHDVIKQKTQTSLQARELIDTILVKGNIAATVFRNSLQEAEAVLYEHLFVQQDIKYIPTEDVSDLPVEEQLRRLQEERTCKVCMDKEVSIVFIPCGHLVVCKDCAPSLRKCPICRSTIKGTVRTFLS
Description: as §1

BIRC3 BIR2 = BIRC3 BIR2 (Homo sapiens, UniProt Q13489); experiment: NanoBRET cellular target engagement, single domain BIRC3 BIR2; conditions: read-out: EC50 ± SEM NanoBRET BIRC3 BIR2; single domain, HEK293T, n = 4
Chain of BIRC3 BIR2 (Q13489 147-253): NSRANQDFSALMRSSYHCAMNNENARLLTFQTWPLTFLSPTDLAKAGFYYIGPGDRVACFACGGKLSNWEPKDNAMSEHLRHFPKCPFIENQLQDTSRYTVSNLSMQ
Description: as §1

BIRC3 BIR3 = BIRC3 BIR3 (Homo sapiens, UniProt Q13489); experiment: NanoBRET cellular target engagement, single domain BIRC3 BIR3; conditions: read-out: EC50 ± SEM NanoBRET BIRC3 BIR3; single domain, HEK293T, n = 4
Chain of BIRC3 BIR3 (Q13489 236-360): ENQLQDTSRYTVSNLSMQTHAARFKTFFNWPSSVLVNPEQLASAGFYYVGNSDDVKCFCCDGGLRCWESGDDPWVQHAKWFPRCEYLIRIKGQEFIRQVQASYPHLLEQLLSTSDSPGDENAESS
Description: as §1

[5] = read-out: EC50 ± SEM NanoBRET BIRC7, full-length, HEK293T, n = 4
[6] = read-out: EC50 ± SEM NanoBRET BIRC8, full-length, HEK293T, n = 4
[7] = read-out: EC50 ± SEM NanoBRET BIRC7 BIR, single domain, HEK293T, n = 4
[8] = read-out: EC50 ± SEM NanoBRET BIRC8 BIR, single domain, HEK293T, n = 4
[9] = read-out: EC50 ± SEM NanoBRET BIRC1 BIR[2], single domain, HEK293T, n = 4

Chain of BIRC4 (P98170 whole entry): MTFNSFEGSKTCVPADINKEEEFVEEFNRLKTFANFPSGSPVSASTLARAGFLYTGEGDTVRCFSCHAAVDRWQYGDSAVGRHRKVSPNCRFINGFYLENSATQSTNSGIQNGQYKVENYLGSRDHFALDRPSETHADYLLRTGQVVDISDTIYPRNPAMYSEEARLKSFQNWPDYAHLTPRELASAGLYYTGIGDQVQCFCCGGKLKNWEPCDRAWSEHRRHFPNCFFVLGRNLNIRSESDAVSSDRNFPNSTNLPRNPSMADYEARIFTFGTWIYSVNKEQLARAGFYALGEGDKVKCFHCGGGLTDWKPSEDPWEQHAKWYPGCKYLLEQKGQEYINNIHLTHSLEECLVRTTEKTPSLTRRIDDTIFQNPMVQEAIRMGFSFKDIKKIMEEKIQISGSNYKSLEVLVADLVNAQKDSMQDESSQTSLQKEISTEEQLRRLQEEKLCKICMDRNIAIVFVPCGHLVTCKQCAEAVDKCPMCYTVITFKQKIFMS

SMILES | EC50 (BIRC7) | EC50 (BIRC8) | EC50 (BIRC7 BIR) | EC50 (BIRC8 BIR) | EC50 (BIRC1 BIR[2]) | Mean, ΔTm [°C] (Supplementary Table S1) (BIRC2-BIR3 domain [1]) | ΔTm [°C] (Supplementary Table S1) (BIRC2-BIR3 domain [1]; first column) | ΔTm [°C] (Supplementary Table S1) (BIRC2-BIR3 domain [1]; second column) | ΔTm [°C] (Supplementary Table S1) (BIRC2-BIR3 domain [1]; third column) | EC50 (BIRC2) | EC50 (BIRC7; [5]) | EC50 (BIRC8; [6]) | EC50 (BIRC7 BIR; [7]) | EC50 (BIRC8 BIR; [8]) | EC50 (BIRC2 BIR2) | EC50 (BIRC2 BIR3) | EC50 (BIRC1 BIR[2]; [9]) | also measured
CN[C@@H](C)C(=O)N[C@H](C(=O)N1CCC[C@H]1C(=O)Nc1snnc1-c1ccccc1)C1CCCCC1 [GDC-0152] | 35.5 ± 9.4 nM | 134 ± 8.4 nM | 28.4 ± 2.7 nM | 146 ± 3.8 nM | 15200 ± 1230 nM |  |  |  |  |  |  |  |  |  |  |  |  | EC50 (BIRC4): 15.3 ± 5 nM
CN[C@@H](C)C(=O)N[C@H](C(=O)N1CCC[C@H]1c1nc(C(=O)c2ccc(F)cc2)cs1)C1CCCCC1 [LCL161] | 26.4 ± 5.5 nM | 199 ± 21.4 nM | 28.5 ± 7 nM | 258 ± 42.4 nM | 1490 ± 297 nM |  |  |  |  |  |  |  |  |  |  |  |  | 
CN[C@@H](C)C(=O)N[C@H]1CCCC[C@H]2CC[C@@H](C(=O)N[C@@H](c3ccccc3)c3cn(CCCCc4ccc(CCCCn5cc([C@@H](NC(=O)[C@@H]6CC[C@@H]7CCCC[C@H](NC(=O)[C@H](C)NC)C(=O)N76)c6ccccc6)nn5)cc4)nn3)N2C1=O [SM-164] |  |  |  |  |  | 13.4 °C | 13.6 °C | 13.4 °C | 13.1 °C | 5.8 ± 0.6 nM | 16.5 ± 6 nM | 85.7 ± 4.7 nM | 50.9 ± 44.4 nM | 87.3 ± 9.4 nM | 6610 ± 5280 nM | 0.8 ± 0.1 nM | 941 ± 258 nM | DSF Assay ΔTm (BIRC2-BIR3 domain [1]; difference in melting temperature to DMSO control, 20 μM protein, 40 μM inhibitor, mean ± SD, n = 3): 13.4 ± 0.2 °C; Ki (BIRC2-BIR3 domain [2]; read-out: FP Assay K I Values): 1.8 ± 0.7 nM; Kd (BIRC2-BIR3 domain [3]; read-out: K D Measured in ITC): 41.6 ± 3.4 nM; Ki (BIRC2-BIR3 domain [4]): 0.3 ± 0.1 nM
Oc1c(CN2CCCC2)cc(COCc2ccccc2)c2cccnc12 [UC-112] |  |  |  |  |  | 0.3 °C | 0.4 °C | 0.3 °C | 0.2 °C | > 50000 nM | > 50000 nM | > 50000 nM | > 50000 nM | > 50000 nM | > 50000 nM | > 50000 nM | > 50000 nM | EC50 (BIRC3): > 50000 nM; EC50 (BIRC4; read-out: EC50 ± SEM NanoBRET BIRC4, full-length, HEK293T, n = 4): > 50000 nM; EC50 (BIRC3 BIR2): > 50000 nM; EC50 (BIRC3 BIR3): > 50000 nM; FP Assay K I Values (BIRC2-BIR3 domain [2]): binding could not be shown; also recorded: no interaction at all; K D Measured in ITC (BIRC2-BIR3 domain [3]): no binding
